ChEMBL document CHEMBL3352489, “6-Hydroxyquinolinium salts differing in the length of alkyl side-chain: synthesis and antimicrobial activity” (Bioorg Med Chem Lett, 2014)

Tests used:
Trichosporon asahii [1] = experiment: Fungicidal activity against Trichosporon asahii 1188 after 48 hrs by modified standard CSLI M27-A2 method; assay type: functional; conditions: Trichosporon asahii, 1188, 48 h
[2] = test system: Staphylococcus epidermidis; experiment: microbe, parasite or virus in culture; assay type: functional; conditions: H 6966/08, 24 h
Description: Antibacterial activity against Staphylococcus epidermidis H 6966/08 after 24 hrs by microdilution broth method

Escherichia coli [3] = experiment: Bactericidal activity against Escherichia coli CCM 4517 after 48 hrs by microdilution broth method; assay type: functional; conditions: CCM 4517, 48 h, read-out: MBC>99.9
Enterococcus sp. [4] = experiment: microbe, parasite or virus in culture; assay type: functional; conditions: J 14365/08, 48 h
Description: Antibacterial activity against Enterococcus sp. J 14365/08 after 48 hrs by microdilution broth method

Nakaseomyces glabratus [5] = experiment: Fungicidal activity against Candida glabrata 20/I after 48 hrs by modified standard CSLI M27-A2 method; assay type: functional
Trichosporon asahii [6] = experiment: microbe, parasite or virus in culture; assay type: functional; conditions: Trichosporon asahii, 1188, 48 h
Description: Antifungal activity against Trichosporon asahii 1188 after 48 hrs by modified standard CSLI M27-A2 method

Enterococcus sp. [7] = experiment: Bactericidal activity against Enterococcus sp. J 14365/08 after 48 hrs by microdilution broth method; assay type: functional; conditions: J 14365/08, 48 h, read-out: MBC>99.9
Lichtheimia corymbifera [8] = experiment: microbe, parasite or virus in culture; assay type: functional; conditions: Lichtheimia corymbifera, 272, 48 h
Description: Antifungal activity against Absidia corymbifera 272 after 48 hrs by modified standard CSLI M27-A2 method

Klebsiella pneumoniae [9] = experiment: Bactericidal activity against Klebsiella pneumoniae D 11750/08 after 24 hrs by microdilution broth method; assay type: functional; conditions: D 11750/08, 24 h, read-out: MBC>99.9
Klebsiella pneumoniae [10] = experiment: microbe, parasite or virus in culture; assay type: functional; conditions: D 11750/08, 24 h
Description: Antibacterial activity against Klebsiella pneumoniae D 11750/08 after 24 hrs by microdilution broth method

Escherichia coli [11] = experiment: microbe, parasite or virus in culture; assay type: functional; conditions: CCM 4517, 24 h
Description: Antibacterial activity against Escherichia coli CCM 4517 after 24 hrs by microdilution broth method

[12] = test system: Staphylococcus epidermidis; experiment: Bactericidal activity against Staphylococcus epidermidis H 6966/08 after 48 hrs by microdilution broth method; assay type: functional; conditions: H 6966/08, 48 h, read-out: MBC>99.9
Pseudomonas aeruginosa [13] = experiment: microbe, parasite or virus in culture; assay type: functional; conditions: CCM 1961, 72 h
Description: Antibacterial activity against Pseudomonas aeruginosa CCM 1961 after 72 hrs by microdilution broth method

Candida albicans [14] = experiment: microbe, parasite or virus in culture; assay type: functional; conditions: ATCC 44859, 48 h
Description: Antifungal activity against Candida albicans ATCC 44859 after 48 hrs by modified standard CSLI M27-A2 method

Candida albicans [15] = experiment: microbe, parasite or virus in culture; assay type: functional; conditions: ATCC 44859, 24 h
Description: Antifungal activity against Candida albicans ATCC 44859 after 24 hrs by modified standard CSLI M27-A2 method

[16] = Retention time of the compound by isocratic elution based HPLC method; assay type: physicochemical
[17] = Cytotoxicity against CHOK1 cells after 24 hrs by MTT assay; assay type: ADME, cell-based; conditions: Cricetulus griseus, CHO-K1, 24 h
Pichia kudriavzevii [18] = experiment: Antifungal activity against Candida krusei E28 after 48 hrs by modified standard CSLI M27-A2 method; assay type: functional; conditions: E28, 48 h
[19] = test system: Trichophyton mentagrophytes; experiment: microbe, parasite or virus in culture; assay type: functional; conditions: Trichophyton mentagrophytes, 445, 120 h
Description: Antifungal activity against Trichophyton mentagrophytes 445 after 120 hrs by modified standard CSLI M27-A2 method

Candida albicans [20] = experiment: Fungicidal activity against Candida albicans ATCC 44859 after 48 hrs by modified standard CSLI M27-A2 method; assay type: functional; conditions: ATCC 44859, 48 h
Staphylococcus aureus [21] = experiment: microbe, parasite or virus in culture; assay type: functional; conditions: H 5996/08, 48 h
Description: Antibacterial activity against Staphylococcus aureus H 5996/08 after 48 hrs by microdilution broth method

Pseudomonas aeruginosa [22] = experiment: Bactericidal activity against Pseudomonas aeruginosa CCM 1961 after 120 hrs by microdilution broth method; assay type: functional; conditions: CCM 1961, 120 h, read-out: MBC>99.9
Nakaseomyces glabratus [23] = experiment: Antifungal activity against Candida glabrata 20/I after 24 hrs by modified standard CSLI M27-A2 method; assay type: functional
Lichtheimia corymbifera [24] = experiment: microbe, parasite or virus in culture; assay type: functional; conditions: Lichtheimia corymbifera, 272, 24 h
Description: Antifungal activity against Absidia corymbifera 272 after 24 hrs by modified standard CSLI M27-A2 method

[25] = test system: Trichophyton mentagrophytes; experiment: Fungicidal activity against Trichophyton mentagrophytes 445 after 120 hrs by modified standard CSLI M27-A2 method; assay type: functional; conditions: Trichophyton mentagrophytes, 445, 120 h
Pseudomonas aeruginosa [26] = experiment: microbe, parasite or virus in culture; assay type: functional; conditions: CCM 1961, 120 h
Description: Antibacterial activity against Pseudomonas aeruginosa CCM 1961 after 120 hrs by microdilution broth method

Staphylococcus aureus [27] = experiment: Bactericidal activity against Staphylococcus aureus CCM 4516/08 after 48 hrs by microdilution broth method; assay type: functional; conditions: CCM 4516/08, 48 h, read-out: MBC>99.9
Aspergillus fumigatus [28] = experiment: microbe, parasite or virus in culture; assay type: functional; conditions: Aspergillus fumigatus, 231, 48 h
Description: Antifungal activity against Aspergillus fumigatus 231 after 48 hrs by modified standard CSLI M27-A2 method

Nakaseomyces glabratus [29] = experiment: Antifungal activity against Candida glabrata 20/I after 48 hrs by modified standard CSLI M27-A2 method; assay type: functional
Pichia kudriavzevii [30] = experiment: Fungicidal activity against Candida krusei E28 after 48 hrs by modified standard CSLI M27-A2 method; assay type: functional; conditions: E28, 48 h
Klebsiella pneumoniae [31] = experiment: microbe, parasite or virus in culture; assay type: functional; conditions: J 14368/08, 24 h
Description: Antibacterial activity against Klebsiella pneumoniae J 14368/08 after 24 hrs by microdilution broth method

Staphylococcus aureus [32] = experiment: Bactericidal activity against Staphylococcus aureus H 5996/08 after 48 hrs by microdilution broth method; assay type: functional; conditions: H 5996/08, 48 h, read-out: MBC>99.9
Aspergillus fumigatus [33] = experiment: microbe, parasite or virus in culture; assay type: functional; conditions: Aspergillus fumigatus, 231, 24 h
Description: Antifungal activity against Aspergillus fumigatus 231 after 24 hrs by modified standard CSLI M27-A2 method

[34] = test system: Trichophyton mentagrophytes; experiment: microbe, parasite or virus in culture; assay type: functional; conditions: Trichophyton mentagrophytes, 445, 72 h
Description: Antifungal activity against Trichophyton mentagrophytes 445 after 72 hrs by modified standard CSLI M27-A2 method

Staphylococcus aureus [35] = experiment: microbe, parasite or virus in culture; assay type: functional; conditions: CCM 4516/08, 24 h
Description: Antibacterial activity against Staphylococcus aureus CCM 4516/08 after 24 hrs by microdilution broth method

Staphylococcus aureus [36] = experiment: microbe, parasite or virus in culture; assay type: functional; conditions: H 5996/08, 24 h
Description: Antibacterial activity against Staphylococcus aureus H 5996/08 after 24 hrs by microdilution broth method

Enterococcus sp. [37] = experiment: microbe, parasite or virus in culture; assay type: functional; conditions: J 14365/08, 24 h
Description: Antibacterial activity against Enterococcus sp. J 14365/08 after 24 hrs by microdilution broth method

[38] = test system: Staphylococcus epidermidis; experiment: microbe, parasite or virus in culture; assay type: functional; conditions: H 6966/08, 48 h
Description: Antibacterial activity against Staphylococcus epidermidis H 6966/08 after 48 hrs by microdilution broth method

Klebsiella pneumoniae [39] = experiment: microbe, parasite or virus in culture; assay type: functional; conditions: D 11750/08, 48 h
Description: Antibacterial activity against Klebsiella pneumoniae D 11750/08 after 48 hrs by microdilution broth method

Candida tropicalis [40] = experiment: microbe, parasite or virus in culture; assay type: functional; conditions: Candida tropicalis, 156, 48 h
Description: Antifungal activity against Candida tropicalis 156 after 48 hrs by modified standard CSLI M27-A2 method

Pichia kudriavzevii [41] = experiment: Antifungal activity against Candida krusei E28 after 24 hrs by modified standard CSLI M27-A2 method; assay type: functional; conditions: E28, 24 h
Trichosporon asahii [42] = experiment: microbe, parasite or virus in culture; assay type: functional; conditions: Trichosporon asahii, 1188, 24 h
Description: Antifungal activity against Trichosporon asahii 1188 after 24 hrs by modified standard CSLI M27-A2 method

Staphylococcus aureus [43] = experiment: microbe, parasite or virus in culture; assay type: functional; conditions: CCM 4516/08, 48 h
Description: Antibacterial activity against Staphylococcus aureus CCM 4516/08 after 48 hrs by microdilution broth method

[44] = Retention time of the compound by gradient elution based HPLC method; assay type: physicochemical
Lichtheimia corymbifera [45] = experiment: Fungicidal activity against Absidia corymbifera 272 after 48 hrs by modified standard CSLI M27-A2 method; assay type: functional; conditions: Lichtheimia corymbifera, 272, 48 h
Aspergillus fumigatus [46] = experiment: Fungicidal activity against Aspergillus fumigatus 231 after 48 hrs by modified standard CSLI M27-A2 method; assay type: functional; conditions: Aspergillus fumigatus, 231, 48 h
Klebsiella pneumoniae [47] = experiment: Bactericidal activity against Klebsiella pneumoniae J 14368/08 after 48 hrs by microdilution broth method; assay type: functional; conditions: J 14368/08, 48 h, read-out: MBC>99.9
Klebsiella pneumoniae [48] = experiment: microbe, parasite or virus in culture; assay type: functional; conditions: J 14368/08, 48 h
Description: Antibacterial activity against Klebsiella pneumoniae J 14368/08 after 48 hrs by microdilution broth method

Candida tropicalis [49] = experiment: Fungicidal activity against Candida tropicalis 156 after 48 hrs by modified standard CSLI M27-A2 method; assay type: functional; conditions: Candida tropicalis, 156, 48 h
Escherichia coli [50] = experiment: microbe, parasite or virus in culture; assay type: functional; conditions: CCM 4517, 48 h
Description: Antibacterial activity against Escherichia coli CCM 4517 after 48 hrs by microdilution broth method

Candida tropicalis [51] = experiment: microbe, parasite or virus in culture; assay type: functional; conditions: Candida tropicalis, 156, 24 h
Description: Antifungal activity against Candida tropicalis 156 after 24 hrs by modified standard CSLI M27-A2 method

CCCCCCCCCCCC[n+]1cccc2cc(O)ccc21.[Br-]
50 µM: IC50 [17]
0.98 µM: MIC (Candida albicans [15]) | MIC (Pichia kudriavzevii [18]) | MIC [19] | MIC (Nakaseomyces glabratus [23]) | MFC [25] | MIC95 (Enterococcus sp. [37]) | MIC (Candida tropicalis [40]) | MIC (Pichia kudriavzevii [41]) | MIC (Trichosporon asahii [42]) | MIC (Candida tropicalis [51])
3.91 µM: MIC (Lichtheimia corymbifera [24]) | MIC95 (Klebsiella pneumoniae [31]) | MBC (Klebsiella pneumoniae [47]) | MIC95 (Klebsiella pneumoniae [48])
0.95 min: Retention_time [16]
0.49 µM: MIC95 [2] | MBC [12] | MIC [34] | MIC95 (Staphylococcus aureus [35]) | MIC95 (Staphylococcus aureus [36]) | MIC95 [38]
9.34 min: Retention_time [44]
15.6 µM: MIC (Lichtheimia corymbifera [8]) | MFC (Lichtheimia corymbifera [45])
1.95 µM: MFC (Trichosporon asahii [1]) | MBC (Escherichia coli [3]) | MIC95 (Enterococcus sp. [4]) | MFC (Nakaseomyces glabratus [5]) | MIC (Trichosporon asahii [6]) | MBC (Enterococcus sp. [7]) | MBC (Klebsiella pneumoniae [9]) | MIC95 (Klebsiella pneumoniae [10]) | MIC95 (Escherichia coli [11]) | MIC (Candida albicans [14]) | MFC (Candida albicans [20]) | MIC95 (Staphylococcus aureus [21]) | MIC (Nakaseomyces glabratus [29]) | MFC (Pichia kudriavzevii [30]) | MIC (Aspergillus fumigatus [33]) | MIC95 (Klebsiella pneumoniae [39]) | MIC95 (Staphylococcus aureus [43]) | MFC (Candida tropicalis [49]) | MIC95 (Escherichia coli [50])
7.81 µM: MIC95 (Pseudomonas aeruginosa [13]) | MBC (Pseudomonas aeruginosa [22]) | MIC95 (Pseudomonas aeruginosa [26]) | MBC (Staphylococcus aureus [27]) | MIC (Aspergillus fumigatus [28]) | MBC (Staphylococcus aureus [32]) | MFC (Aspergillus fumigatus [46])

CCCCCCCCCCCCCCCCCC[n+]1cccc2cc(O)ccc21.[Br-]
7.06 min: Retention_time [16]
11.47 min: Retention_time [44]

CCCCCCCCCCCCCCCC[n+]1cccc2cc(O)ccc21.[Br-]
500 µM: MBC (Escherichia coli [3]) | MIC95 (Escherichia coli [11]) | MFC (Lichtheimia corymbifera [45]) | MIC95 (Escherichia coli [50])
0.49 µM: MIC95 [2] | MIC95 [38]
250 µM: MFC (Aspergillus fumigatus [46])
3.3 min: Retention_time [16]
7.81 µM: MIC (Trichosporon asahii [6]) | MBC (Enterococcus sp. [7]) | MIC (Lichtheimia corymbifera [8]) | MIC (Candida albicans [14]) | MIC (Candida albicans [15]) | MIC (Lichtheimia corymbifera [24]) | MBC (Staphylococcus aureus [27]) | MIC (Candida tropicalis [40]) | MIC (Trichosporon asahii [42]) | MIC (Candida tropicalis [51])
15.6 µM: MIC (Aspergillus fumigatus [28]) | MIC (Aspergillus fumigatus [33])
0.98 µM: MIC95 (Staphylococcus aureus [35]) | MIC95 (Staphylococcus aureus [43])
20 µM: IC50 [17]
125 µM: MFC (Nakaseomyces glabratus [5]) | MFC (Pichia kudriavzevii [30])
10.77 min: Retention_time [44]
> 500 µM: MBC (Klebsiella pneumoniae [9]) | MIC95 (Klebsiella pneumoniae [10]) | MIC95 (Pseudomonas aeruginosa [13]) | MBC (Pseudomonas aeruginosa [22]) | MIC95 (Pseudomonas aeruginosa [26]) | MIC95 (Klebsiella pneumoniae [31]) | MIC95 (Klebsiella pneumoniae [39]) | MBC (Klebsiella pneumoniae [47]) | MIC95 (Klebsiella pneumoniae [48])
62.5 µM: MFC (Trichosporon asahii [1]) | MFC (Candida albicans [20]) | MFC (Candida tropicalis [49])
3.91 µM: MIC95 (Enterococcus sp. [4]) | MBC [12] | MIC (Pichia kudriavzevii [18]) | MIC [19] | MIC95 (Staphylococcus aureus [21]) | MIC (Nakaseomyces glabratus [23]) | MFC [25] | MIC (Nakaseomyces glabratus [29]) | MBC (Staphylococcus aureus [32]) | MIC [34] | MIC95 (Staphylococcus aureus [36]) | MIC95 (Enterococcus sp. [37]) | MIC (Pichia kudriavzevii [41])
